# Source: patent US20140072654A1, “CANCER WITH METABOLIC THERAPY AND HYPERBARIC OXYGEN” (priority 2011, published 2014)
# Entries after “also recorded” stand apart in the source; their conditions may differ.
# Legend:
# [1] = tested on: rats exposed to hyperbaric oxygen (5 ATA O2); assay: CNS oxygen toxicity: latency to seizure (EEG) in rats in hyperbaric oxygen; format: in vivo, rat; conditions: for effect on latency to seizure / CNS-OT (words): 5 ATA O2, ~3 ml (~10 g/kg) gavage 30 min before HBO2
# Excerpt: Hyperbaric Chamber HBO2 system consisted of two main elements: 1) a plexiglass chamber (˜3 liter capacity, Diamond Box, Buxco, Electronics Inc., model PLY3114), that housed the rat during the experiment, and 2) a hyperbaric chamber (Reimers System Inc.—7.8 ATA MWP), that contained the plexiglass chamber and functioned as the pressure vessel. Both chambers were connected to an air compressor (oil-less rotary scroll compressor—model DK6086, Powerex).
# During each experiment (hyperbaric hyperoxia), both the main chamber and the animal chamber were filled with air (dive profile). Rats were placed into the plexiglass chamber and allowed ten minutes to acclimate, at which time the plexiglass chamber was flushed with 100% 02. The animal was then allowed 15 minutes to acclimate before both chambers were compressed to 5 ATA (58.8 PSIG) at a rate of 0.7 ATA/min. The outer chamber was pressurized using air (capacity ˜205 liters) to minimize the risk of an electrical-induced fire. Each experiment was visually monitored via a live camera. LS was calculated from the moment at which the internal and the external chambers reached 5 ATA until the onset of convulsions, identified as high-amplitude, high frequency spikes lasting 10 to 30 sec, followed by polyspikes and wave formation concurrent with tonic-clonic motions of forelimbs and head. After the onset of seizures, the plexiglass chamber was flushed with air to quickly terminate seizure, and both chambers decompressed to sea level. Decompression rate was 1 ATA/min. Rats were then allowed a 15 min recovery period in air at 1 ATA before being removed from the chamber.
# The radiotelemetry system consisted of an implantable 4ET radio-transmitter able to amplify and broadcast signals via a receiver (DSI PhysioTel, model RPC-2) connected to an acquisition interface unit (ACQ 7700 Ponemah) via electrical penetrations in the wall of the hyperbaric chamber. The acquisition interface unit was connected to a computer for real time data collection and storage. The same acquisition unit also recorded chamber pressure and temperature, which were measured, respectively, by […] directly connected to the acquisition system via BNC (Bayonet Neill-Concelman) cables.
# Anticonvulsant effect of supplemental ketones was tested in rats exposed to hyperbaric oxygen (5 ATA O2). The effects of ketone esters (KEs) in preventing CNS-OT in rats were assessed before, during and after HBO2 exposure by measuring various parameters.
# Adult male Sprague-Dawley rats (n=60) rats (300-450 grams; 3 to 6 month old) were obtained from Harlan, anesthetized in 3-5% isoflurane (in 02) and implanted with a 4ET radio-transmitter (Data Sciences International, DSI) using sterile surgical technique. The rat chamber was ventilated with pure O2 while the hyperbaric chamber, containing the radio-receiver (DSI), was pressurized in parallel with air to 5 atmospheres absolute (ATA). One pair of leads (positive and negative poles) was implanted in the costal diaphragm at the junction with the abdominal wall for diaphragmatic electromyogram (dEMG) signals, one pair of electrodes was inserted in the pectoral muscle to acquire electrocardiogram (ECG) data, and two pairs of wires were embedded in the skull between Bregma and Lambda, with one lead on either side of midline for each pair (EEG recordings). The EMG wires were not inserted into crural diaphragmatic muscle because of the high risk of pneumothorax due to the thinness of the muscle (419 to 630 μm). 4ET radio-transmitters also monitored core body temperature and physical activity. Rats were weighed immediately before surgery and subsequently once every 7 days, just prior to the weekly exposures to HBO2. After surgery, every animal recovered for ≧1 week. The rats were food (not water) deprived for 18 hours prior to the start of the experiment.
# In each case animals were gavaged about 30 minutes prior to diving. […]
# VM-M3/Fluc tumors = assay: Tumor bioluminescence in VM-M3/Fluc mice; format: in vivo, mouse
# VM-M3 metastatic cancer = assay: Survival time in VM-M3 mouse model of metastatic cancer; format: in vivo
# [2] = Acute ketosis with supplementation in healthy VM/Dk mice (blood glucose, blood βHB, urine AcAc after feeding); format: in vivo, mouse
# Experimental: FIG. 34(A)-(C) are graphs showing effect of ketone supplementation on blood glucose, blood βHB, urine AcAc, and body weight in mice. (A-C) blood glucose; (B) blood levels of ketones; and (C) urine AcAc of healthy VM/Dk mice 0-12 hours after feeding following 8 hour fast. […] Error bars represent ±SEM.
# [3] = Blood ketones and glucose after oral gavage in rats; format: in vivo, rat; conditions: for blood BHB level (words): vs control water
# Experimental: Whole blood samples (10 μl) were acquired for analysis of glucose and BHB utilizing a commercially available glucose/ketone monitoring system (Nova Max® Plus) at time 0, 30, 60, 120, 180 and 240 min. In addition, heparinized blood samples (200 μl) were collected into Eppendorf tubes at time 0, 30, 60, 120, 180 and 240 min. Samples were processed for the detection and quantification of BHB, AcAc, and acetone. Briefly, samples were chilled on ice for 30 s, centrifuged in a micro-centrifuge (13,000 G) for 3-5 min and plasma (>100 μl), treated with reducing reagent of cold 0.2M sodium borodeuteride (NaBD4; Sigma, 205591, CAS 15681-89-7) dissolved in 0.1M NaOH (8.4 mg NaBD4 in 1 ml of 0.1M NaOH) and then immediately frozen on dry ice before storing at −80° C. Acetone was analyzed at the 60 minute time point, which was the predicted peak of blood AcAc levels (Desrochers et al. 1995). 300 μl of whole blood were collected in addition to the above collections, stabilized with cold 0.2M NaBD4, and then immediately frozen on dry ice. Samples were stored at −80° C. until analyzed for ketones. Internal standards of [^2H6]BHB or [^2H8]isopropanol were added to the treated plasma or blood samples (50 μl or 15 μl) and the BHB, AcAc (as M+1 of BHB) or acetone (as 2-propanol) metabolites were analyzed by gas chromatography-mass spectrometry (GC-MS) using an Agilent 5973 mass spectrometer, linked to a 6890 gas chromatograph equipped with an autosampler. Briefly, GC-MS conditions were either EI or CI mode (electron or chemical ionization mode); the samples were detected by selected ion monitoring as the BHB- and AcAc-trimethylsilyl derivatives (EI) or the derivative of acetone-pentafluorobenzoyl (CI).
# KE and BD. […] Blood was collected and processed as described in the previous example.
# Ketone measurements were taken at 30, 60, 120, 180 and 240 minutes. Blood plasma was treated with sodium borodeuteride (NaB2H4) to stabilize ketone concentration and then assayed by GC-MS. The rapid rise relating to blood ketones from BD-AcAc2 is due primarily from rapid desterfication in blood and tissues.
# [4] = rats
molecule,measurement,setting,value
"CC(=O)CC(=O)OCCC(C)O (centres unmarked) [BD-AcAc, R,S-1,3-butanediol acetoacetate monoester]","latency time to seizure, individual rat (EEG)","[1]; 5 ATA O2 (60 PSI), same rat 8 minutes without ketone ester",110 min
same,effect on latency to seizure / CNS-OT (words),[1]; rats,significantly increased the latency time to seizure
same,effect on latency to seizure / CNS-OT (words),"[1]; rats, listed as 1,3-BD AcAc monoester",delays CNS-OT
same,increase in latency to seizure (LS) compared to control,"[1]; rats, 5 ATA O2, ~10 g/kg intragastric 30 min before dive, control water",285%
"C[C@H](O)CCO [BD, R,S-1,3-butanediol, reference compound]",tumor growth / bioluminescence,VM-M3/Fluc tumors; VM-M3 mice vs controls,profound effect
same,"whole body tumor bioluminescence (ROI), representative animal",VM-M3/Fluc tumors; day 21 after tumor cell inoculation,1.739×10^6
same,increase in mean survival time,"VM-M3 metastatic cancer; Example 5, compared to controls",approximately 16 days
same,% increase in survival time,"VM-M3 metastatic cancer; Example 5, vs control (SD)",51%
same,time after feeding to significant βHB elevation,[2]; after 8 hour fast,1 h
same,"ketone bodies elevated, βHB and AcAc",[2]; blood βHB and urine AcAc,only elevated βHB
same,time for which blood glucose was significantly lowered,[2]; standard chow with ketone supplementation after 8 hour fast,8 h
same,blood BHB,[3]; single oral administration ~10 g/kg,> 5 mM
same,blood AcAc level,[3]; ~10 g/kg gavage,only modest elevation in AcAc relative to KE; also recorded: low or undetectable
same,blood acetone level,"[3]; ~10 g/kg gavage, 60 minutes",low or undetectable
same,effect on blood glucose,"[3]; ~10 g/kg gavage, over 4 hrs, relative to water",no significant effect on blood glucose levels
same,blood BHB level (words),[3]; ~10 g/kg gavage,significant increase in BHB
same,blood BHB level (words),"[3]; ~10 g/kg gavage, listed as 1,3-butanediol",elevated blood levels of B-hydroxybutyrate
same,effect on latency to seizure / CNS-OT (words),[1]; rats,did not delay CNS-OT; also recorded: did not increase LS
same,effect on latency to seizure / CNS-OT (words),"[1]; rats, listed as 1,3-BD",lack of efficacy
same,effect on latency to seizure / CNS-OT (words),"[1]; rats, listed as 1,3-butanediol",no effect on seizure latency
same,"blood pH change, mild nonpathological acidosis (FIG. 25)",[4],from 7.45 to 7.35
same,decrease of blood pH compared to control after about 30 minutes,"[4]; control pH ~7.5, mean",0.05
same,decrease of blood pH compared to control after about one hour,"[4]; control pH ~7.5, mean",0.1
"(R)-1,3-butanediol ester [BHB ester, reference compound]",blood BHB level (words),[3]; ~10 g/kg gavage,elevated blood levels of B-hydroxybutyrate
same,effect on latency to seizure / CNS-OT (words),"[1]; rats, listed as 1,3-BD BHB ester",lack of efficacy
same,effect on latency to seizure / CNS-OT (words),"[1]; rats, listed as B-hydroxybutyrate ester",no effect on seizure latency
